Measurements: patent US20050064011A1, “Implantable or insertable medical devices containing phenolic compound for inhibition of restenosis” (priority 2003, published 2005)

Test system: coronary arteries of juvenile domestic swine
Assay: Stent implantation in porcine coronary artery model, morphometric analysis after 28 days
Type: in vivo
Conditions: BHT in copolymer stent coating
Text: The following are placed in the coronary arteries of juvenile domestic swine: (a) oversized bare metal stents, (b) EtO-sterilized, copolymer-coated, BHT-free stents, (c) electron-beam-sterilized, copolymer-coated, BHT-free stents, (d) electron-beam-sterilized, stents with coating containing 5% BHT and 95% copolymer, and (e) electron beam-sterilized, stents with coating containing 10% BHT and 90% copolymer. After 28 days, the stents are harvested from the animals and an examination of morphometric % restenosis and neointimal thickening area was conducted. Morphometric analysis is performed on one specimen from each stented segment in a blinded manner. Morphometry is completed using a PC based digital planimetry system. Morphometric % restenosis is determined by neointimal area÷internal elastic lamina (IEL) area×100; while neointimal area is determined by internal elastic lamina (IEL)−injured luminal area. The results are presented in the table to follow: Statistical methods are as follows: Data are presented as mean±S.D. Comparisons between the control (bare stent) and treated stents were made using unpaired t-test. Improvement in morphometic % restenosis and neointimal area, relative to bare stents, was […] considered to be statistically significant for values of p≦0.05.

In the case of `Cc1cc(C(C)(C)C)c(O)c(C(C)(C)C)c1` [BHT, butylated hydroxytoluene], the stent biocompatibility is reported as “enhances stent biocompatibility”.
